The values below come from patent publication US20240228973A9, “NON-ALCOHOLIC FATTY LIVER ARTIFICIAL TISSUE MODEL” (CELLARTGEN INC., priority 2021, published 2024).

The structures appear in SMILES notation. A value given as a limit tells only on which side of the number the result lay.

One data set has as its system normal liver organoids. Briefly: Viability of normal liver organoids treated with the drug (cytotoxicity). Type of data set: cell-based, human. How it is done:
Also, when the viability of the normal liver organoids treated with the drug was analyzed to evaluate the cytotoxicity depending on the concentration of the drug, it was confirmed that the viability was 80% or more at 1 μM, 70% at 10 μM, and about 60% at 100 μM (FIG. 15B). That is, it was confirmed that liver toxicity increased as the treatment concentration of OCA increased.
Also, when the viability of the normal liver organoids treated with the drug was analyzed to evaluate the cytotoxicity depending on the concentration of the drug, it was confirmed that the viability was 70% or more at 1 μM to 10 μM and about 50% at 100 μM (FIG. 16B).
Also, when the viability of the normal liver organoids treated with the drug was analyzed to evaluate the cytotoxicity depending on the concentration of the drug, it was confirmed that the viability was not affected at a concentration of up to 1 μM, and it was 80% or more at 10 μM and about 60% at 100 μM (FIG. 17B).

The subject of data set [1] is human tissue-derived non-alcoholic steatohepatitis (NASH) liver organoids. Briefly: Drug efficacy evaluation in human tissue-derived NASH liver organoids co-cultured with EC, KC and HSC in LEM-Chip. Type of data set: cell-based.
Excerpt: (§1) Steatohepatitis (NASH) was induced in liver organoids in which a liver tissue microenvironment [vascular endothelial cells (E)+Kupffer cells (K)+hepatic stellate cells (S)] was constructed under culture conditions in which the decellularized liver tissue-derived LEM scaffold and the multiwell microfluidic device were combined, followed by treatment with obeticholic acid (OCA) at different concentrations. OCA (Obeticholic acid) is a semi-synthetic bile acid analogue that has conventionally been used to treat cholangitis and is a drug candidate whose efficacy has recently been verified in non-alcoholic steatohepatitis clinical trials. The NASH group was treated with 800 μM fatty acid for 3 days to induce a disease, and the NASH+OCA group was treated with 800 μM fatty acid and the corresponding drug for 3 days at different concentrations.
as §1, with “ezetimibe (Eze)” for “obeticholic acid (OCA)”, “Eze (Ezetimibe)” for “OCA (Obeticholic acid)”, “cholesterol absorption inhibitor and is a drug candidate” for “semi-synthetic bile acid analogue”, “hyperglycemic cholesterol” for “cholangitis”, “lipid abnormalities.” for “is a drug candidate whose efficacy has recently been verified in non-alcoholic steatohepatitis clinical trials.”, “NASH+Eze” for “NASH+OCA”
as §1, with “dapagliflozin (DAPA)” for “obeticholic acid (OCA)”, “DAPA (Dapagliflozin)” for “OCA (Obeticholic acid)”, “sodium-glucose transporter inhibitor and is a drug candidate” for “semi-synthetic bile acid analogue”, “diabetes.” for “cholangitis and is a drug candidate whose efficacy has recently been verified in non-alcoholic steatohepatitis clinical trials.”, “NASH+DAPA” for “NASH+OCA”

[2] abbreviates: 800 μM fatty acid + drug for 3 days at different concentrations.
The mark [3] stands for this setting: drug concentration of 10 μM or more.

On to `CC[C@H]1[C@@H](O)[C@@H]2[C@H](CC[C@]3(C)[C@@H]([C@H](C)CCC(=O)O)CC[C@@H]23)[C@@]2(C)CC[C@@H](O)C[C@@H]12` [OCA, obeticholic acid], for which the “viability of the normal liver organoids” value in the data set with normal liver organoids (1 μM drug) is recorded as ≥ 80%; in the data set on normal liver organoids (10 μM drug), 70%; with normal liver organoids (100 μM drug), “about 60%”. Moreover, the liver toxicity result in the data set on normal liver organoids (as the treatment concentration increased) is on record as “increased”.

As for `CCOc1ccc(Cc2cc([C@@H]3O[C@H](CO)[C@@H](O)[C@H](O)[C@H]3O)ccc2Cl)cc1` [DAPA, dapagliflozin], the “viability of the normal liver organoids” value was ≥ 80% with normal liver organoids (10 μM drug), “about 60%” in the data set with normal liver organoids (100 μM drug) and “not affected” with normal liver organoids (concentration of up to 1 μM).

Consider `O=C1[C@H](CC[C@H](O)c2ccc(F)cc2)[C@@H](c2ccc(O)cc2)N1c1ccc(F)cc1` [Eze, ezetimibe], for which, in data set [1] (setting [2]), the “amount of fat accumulation” value is “reduced as the concentration increased”; the “morphology and structure of the organoid” value is “recovered”. In data set [1] (setting [3]), the “expression of the fibrosis marker, quantitative PCR” value was “decreased to a level similar to that in the normal organoid” and the “expression of the inflammation marker, quantitative PCR” value is on record as “decreased to a level similar to that in the normal organoid”. Moreover, in data set [1] (vs NASH group, 3 days), the “expression of fibrosis-related marker (SMA), quantitative PCR” value is on record as “decreased” and the “expression of inflammation-related marker (TNFα), quantitative PCR” value is “decreased”. Also, the “viability of the normal liver organoids” value with normal liver organoids (1 μM to 10 μM drug) is ≥ 70%. In addition, the “viability of the normal liver organoids” value in the data set with normal liver organoids (100 μM drug) is reported as “about 50%”.
